One may read the IC50 as the concentration that gives 50% inhibition. The term Ki denotes a measure of affinity in units of concentration, obtained from inhibition or displacement.

Like-named read-outs stand apart in the source and are kept apart here.

Consider seven compounds from PMC7180456, “Multitarget Anticancer Agents Based on Histone Deacetylase and Protein Kinase CK2 Inhibitors” (Molecules, 2020).

Series [1] relates to HL-60/adr line. More on the design: method as in PMID 17904109. The following applies: cited from earlier work.
For series [2], the system named is HL-60/vinc line. More on the design: method as in PMID 17904109. The following applies: cited from earlier work.
Series [3] deals with HDAC. Further details: method as in PMID 29733427. The settings on record: Figure 2; read-out: IC50 of FDA-approved HDAC inhibitors; cited from earlier work.
The test system of series [4] is HDAC1. Further details: method as in doi:10.1039/C6RA09717K. The following applies: Figure 3; read-out: HDAC1 IC50 of previously described dual inhibitors; cited from earlier work.
The subject of series [5] is two mammalian cell lines. More on the design: method as in doi:10.1039/C6RA09717K. The following applies: cited from earlier work.
In series [6] the test system is CK2. The following applies: Figure 3; read-out: CK2 IC50 of previously described dual inhibitors; cited from earlier work.
The target in series [7] is T1, HDAC6 (Homo sapiens, UniProt Q9UBN7).
T1 construct: purchased Enzo Life Sciences, Inc
T1 sequence (Q9UBN7 1-1215): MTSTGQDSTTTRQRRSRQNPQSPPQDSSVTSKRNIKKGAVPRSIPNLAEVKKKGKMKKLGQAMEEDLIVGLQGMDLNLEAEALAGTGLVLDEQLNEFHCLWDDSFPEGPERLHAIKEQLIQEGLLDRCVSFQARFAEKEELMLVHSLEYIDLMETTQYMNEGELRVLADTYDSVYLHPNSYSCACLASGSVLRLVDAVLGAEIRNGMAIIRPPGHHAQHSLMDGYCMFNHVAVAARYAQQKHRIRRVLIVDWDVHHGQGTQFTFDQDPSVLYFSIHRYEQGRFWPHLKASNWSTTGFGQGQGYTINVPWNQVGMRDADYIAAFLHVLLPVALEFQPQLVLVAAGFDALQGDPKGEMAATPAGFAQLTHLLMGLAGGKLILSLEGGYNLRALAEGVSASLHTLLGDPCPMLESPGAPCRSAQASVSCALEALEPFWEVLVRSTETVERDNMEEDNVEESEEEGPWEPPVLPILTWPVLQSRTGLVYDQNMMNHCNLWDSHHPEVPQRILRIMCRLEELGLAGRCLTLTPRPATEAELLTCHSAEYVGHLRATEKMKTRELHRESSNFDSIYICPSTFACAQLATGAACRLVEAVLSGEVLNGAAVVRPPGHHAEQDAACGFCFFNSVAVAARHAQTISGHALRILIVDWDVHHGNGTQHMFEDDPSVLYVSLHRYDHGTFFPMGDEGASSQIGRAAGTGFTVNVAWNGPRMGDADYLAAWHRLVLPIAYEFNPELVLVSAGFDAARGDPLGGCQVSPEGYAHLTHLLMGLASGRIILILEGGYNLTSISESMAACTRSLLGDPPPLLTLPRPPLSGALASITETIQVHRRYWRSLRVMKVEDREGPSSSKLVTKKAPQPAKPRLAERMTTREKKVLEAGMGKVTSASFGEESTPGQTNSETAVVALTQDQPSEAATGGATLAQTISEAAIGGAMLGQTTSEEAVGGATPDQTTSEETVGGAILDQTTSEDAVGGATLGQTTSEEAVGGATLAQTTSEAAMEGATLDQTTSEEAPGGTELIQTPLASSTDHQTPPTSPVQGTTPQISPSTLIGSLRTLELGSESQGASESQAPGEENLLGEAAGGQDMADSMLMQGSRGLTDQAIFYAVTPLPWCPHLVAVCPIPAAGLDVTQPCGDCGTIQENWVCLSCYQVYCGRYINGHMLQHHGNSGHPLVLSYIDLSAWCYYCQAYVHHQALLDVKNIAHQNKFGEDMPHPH
Description: HDAC6 inhibition, fluorometric method (Enzo Fluorometric Drug Discovery Assay Kit). The settings on record: read-out: Inhibitory activity IC50 on HDAC6. Format: biochemical. The method, then: For this reason, we analyzed the activity of 15 and 19, together with other compounds from the alkyl and triazole series in HDAC6, tested using a fluorometric method (Table 1).
(§1) 15 µL of HDAC1 (0.4 µg/well) or HDAC6 (0.5 µg/well) were incubated at 37 °C for 30 minutes with 10 µL of inhibitor diluted in 5% DMSO and 25 µL of fluorogenic substrate (0.05 µL/well of 5 mM solution). Reactions were stopped with the developer and trichostatin A, diluted in buffer without BSA, and the plate was incubated at 30 °C for 45 min, followed by measuring the fluorescence (Ex. 360 nm, Em. 450 nm, Fluoroskan, Thermo Scientific).

Series [8] deals with T2, human recombinant CK2α (Homo sapiens, UniProt P68400).
T2 construct: GST; made in house; host or cells: bacteria
Description: CK2 inhibition, radiometric method with peptide substrate […]. The class given is biochemical. The method, then: The activity towards human recombinant HDAC1 was tested using a fluorometric method. CK2 inhibitory activity was determined by a radiometric method, using a short peptide ([…]) as a substrate.
Recombinant human protein kinase GST-CK2 was produced in bacteria and purified as described elsewhere. […] The reaction buffer contained 20 µM [γ-32P] ATP (specific radioactivity 300–1000 cpm/pmol), 15 mM Mg^2+, 20 mM Tris–HCl pH 7.5, and 6 mM 2-mercaptoethanol. 10 µL of the assay mixture was spotted onto a square (1 cm/1 cm) of Whatman P81 paper and allowed to dry. Each square was immersed in cold 0.5% phosphoric acid, and washed three times during 10 min, allowed to dry and transferred into a vessel containing Opti-Phase liquid (scintillation solution) and radioactivity was quantified using a scintillation counter (MicroBeta, Perkin Elmer) by Cerenkov counting. All experiments were performed in triplicate. IC50 values were calculated using GraphPad Prism (version 4.0) software.

For series [9], the system named is HL-60/wt cells. Description: Depolarization of mitochondria, JC-1 assay, FACS. The class given is cell-based, human. The settings on record: 24 h.
For series [10], the system named is breast adenocarcinoma cells of MCF-7 line. Description: Cytotoxicity, trypan blue exclusion assay, 24 h. The settings on record: Homo sapiens.
Description: (§4) Walter Berger, Institute of Cancer Research, Vienna Medical University. Human embryonal kidney cells of HEK293 line were obtained from cell culture collection of R.E. Kavetsky Institute of Experimental Pathology, Oncology and Radiobiology, National Academy of Sciences of Ukraine (Kyiv, Ukraine).
(§5) Cells were seeded (5 × 10^5/mL for leukemia cells and 1 × 10^5/mL for carcinoma cells) into 24-well tissue culture plates (Greiner Bio-one, Frickenhausen, Germany) and were permitted to adhere and grow for 24 h before the experiment. Short-term (24 h) cytotoxic effect of antitumor drugs was studied under the Evolution 300 Trino microscope (Delta Optical, Nowe Osiny, Poland) after cell staining with trypan blue dye (0.1%).
(§6) Final concentration of DMSO in cell culture was 0.5% or less.
(§7) All experiments were performed in triplicate and repeated three times. Statistical analysis of data was conducted in GraphPad Prism 7.0 Software (GraphPad Software, Inc.) using Student’s t test. Statistical significance was set at P ≤ 0.05. Evaluation of LC50 values of each compound was done by built-in functions of GraphPad Prism (non-linear regression, curve fit, [Inhibitor] vs. normalized response - Variable slope).
In series [11] the test system is HL-60/vinc (vincristine-resistant, P-gp overexpression). Description: Cytotoxicity, trypan blue exclusion assay, 24 h. Format: cell-based. The settings on record: Homo sapiens, HL60/vinc. From the text:
(§2) Taking into consideration the high abundance of CK2 kinase in leukemia and lymphomas, the ability of selected CK2-HDAC dual inhibitors to circumvent MDR was investigated in human leukemia cells of HL-60 line and its doxorubicin-resistant (HL-60/adr, MRP-1 overexpression) and vincristine-resistant (HL-60/vinc, P-gp overexpression) sublines.
(§3) Statistical significance was set at P ≤ 0.05.

The test system of series [12] is leukemia cells of HL-60 line. Description: Cytotoxicity, trypan blue exclusion assay, 24 h. The class given is cell-based. The following applies: Homo sapiens.
Excerpt: as §2, §3

Series [13] deals with HL-60/adr (doxorubicin-resistant, MRP-1 overexpression). Description: Cytotoxicity, trypan blue exclusion assay, 24 h. The following applies: Homo sapiens, HL60/ADR. Format: cell-based.
Excerpt: as §2, §3

For series [14], the system named is HCT-116 colon carcinoma cells. Description: Cytotoxicity, trypan blue exclusion assay, 24 h. The settings on record: Homo sapiens.
Description: as §4, §5, §6, §7
Series [15] has as its system Jurkat T-leukemia cells. Description: Cytotoxicity, trypan blue exclusion assay, 24 h. The settings on record: Homo sapiens.
Description: as §4, §5, §6, §7
Series [16] relates to human tumor and pseudonormal cell lines. Description: Cytotoxicity, trypan blue assay, range over the cell lines tested. The class given is cell-based. The following applies: 24 h, read-out: LC50 range depending on cell line.
Excerpt: as §3

The nature of series [17]: Cytotoxicity, trypan blue exclusion assay, 24 h (pseudonormal cells). The settings on record: human, HEK293 embryonic kidney cells (pseudonormal).
Description: as §4, §5, §6, §7
Series [18] addresses T3, human recombinant HDAC1 (Homo sapiens, UniProt Q13547).
T3 construct: purchased Enzo Life Sciences, Inc
Description: HDAC1 inhibition, fluorometric method (Enzo Fluorometric Drug Discovery Assay Kit). The class given is biochemical. The following applies: read-out: Inhibitory activity IC50 on HDAC1. As to the method:
The inhibitory activities of the synthesized compounds were determined against CK2 and HDAC1 and the IC50 values are collected in Table 1. The activity towards human recombinant HDAC1 was tested using a fluorometric method. CK2 inhibitory activity was determined by a radiometric method, using a short peptide ([…]) as a substrate.
as §1

The target of series [19] is HDAC-6. The settings on record: Figure 4; read-out: Ki, HDAC-6 inhibitor; cited from earlier work.

T2 sequence (P68400 whole entry): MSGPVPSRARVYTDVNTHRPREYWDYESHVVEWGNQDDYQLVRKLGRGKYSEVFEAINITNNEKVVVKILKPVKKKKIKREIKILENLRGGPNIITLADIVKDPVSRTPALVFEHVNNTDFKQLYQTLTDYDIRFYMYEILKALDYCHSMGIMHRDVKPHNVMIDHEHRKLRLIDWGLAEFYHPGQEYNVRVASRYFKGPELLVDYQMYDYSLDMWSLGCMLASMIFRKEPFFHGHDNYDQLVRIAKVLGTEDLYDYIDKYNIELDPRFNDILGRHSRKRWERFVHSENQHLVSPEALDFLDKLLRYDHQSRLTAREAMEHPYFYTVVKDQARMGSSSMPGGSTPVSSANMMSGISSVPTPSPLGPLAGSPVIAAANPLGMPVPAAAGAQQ
T3 sequence (Q13547 whole entry): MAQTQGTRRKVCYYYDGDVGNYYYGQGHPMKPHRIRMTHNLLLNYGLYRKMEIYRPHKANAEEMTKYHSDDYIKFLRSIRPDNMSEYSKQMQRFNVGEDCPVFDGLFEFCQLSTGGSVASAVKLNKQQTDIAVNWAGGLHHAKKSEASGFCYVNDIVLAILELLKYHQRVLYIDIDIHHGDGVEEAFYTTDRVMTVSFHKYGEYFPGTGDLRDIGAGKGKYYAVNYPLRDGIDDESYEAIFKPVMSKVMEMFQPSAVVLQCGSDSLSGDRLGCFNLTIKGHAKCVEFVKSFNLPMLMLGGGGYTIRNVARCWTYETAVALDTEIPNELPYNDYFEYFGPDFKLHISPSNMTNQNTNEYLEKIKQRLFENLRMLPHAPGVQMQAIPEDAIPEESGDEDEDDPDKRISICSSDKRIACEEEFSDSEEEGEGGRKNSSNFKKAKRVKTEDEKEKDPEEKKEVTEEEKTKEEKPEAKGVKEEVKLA

As to `COc1cccc2c1C(=O)c1c(O)c3c(c(O)c1C2=O)C[C@@](O)(C(=O)CO)C[C@@H]3O[C@H]1C[C@H](N)[C@H](O)[C@H](C)O1` [doxorubicin], the entries for the “resistance of the MDR cell model to the drug” value in series [1] and in series [2] were 80 fold and 140 fold, respectively.

As for `Cc1[nH]c2ccccc2c1CCNCc1ccc(/C=C/C(=O)NO)cc1` [Panobinostat], the IC50 in [3] is 5 to 20 nM.

Take `O=C(CCn1cc(CCn2nc3c(Br)c(Br)c(Br)c(Br)c3n2)nn1)NO` [Compound 2]: the half-inhibitory concentration (IC50) in series [4] was 2.2 µM; in [6] it was 50 µM. Moreover, in series [5], the “cytotoxic activity LC50” value is “low micromolar”.

Consider `CN(C)c1nc2c(Br)c(Br)c(Br)c(Br)c2n1CCCCCCC(=O)NO` [Compound 11c, N-Hydroxy-7-(4,5,6,7-tetrabromo-2-(dimethylamino)-1H-benzo[d]imidazol-1-yl)heptanamide], for which the IC50 in series [7] worked out at 1130 nM; in series [8] (radiometric method, 20 µM ATP, read-out: Inhibitory activity IC50 on CK2), 16.6 µM; in [18] it was 1770 nM. For the same compound, the “fold difference in the CK2 inhibitory activity compared to 11b” value in series [8] (compared to 11b) is given as 4.5 fold. For the same compound, the depolarization of mitochondria is reported as 34.73% in [9] (10 µM) and 49.98% in series [9] (30 µM). Besides, the CC50 was 9.97 ± 0.99 µM in series [10] (MCF7, 24 h, read-out: LC50 Values of Compounds for Cell Line, MCF-7); 9.02 µM in series [10] (MCF7, read-out: LC50 values of compounds for cell line, MCF-7); 12.1 ± 3.27 µM in [11] (Table 2, trypan blue, 24 h, M ± SD, read-out: LC50 Values of Compounds for Cell Line, HL-60/vinc); 2.49 µM in series [11] (supplement Table 4S, M±SD, read-out: LC50 values of compounds for cell line, HL-60/vinc); 6.59 ± 0.96 µM in [12] (Table 2, trypan blue, 24 h, M ± SD, read-out: LC50 Values of Compounds for Cell Line, HL-60); 4.69 µM in series [12] (supplement Table 4S, M±SD, read-out: LC50 values of compounds for cell line, HL-60). Further, the CC50 in series [13] (Table 2, trypan blue, 24 h, M ± SD, read-out: LC50 Values of Compounds for Cell Line, HL-60/adr) was 10.6 ± 1.53 µM; in [13] (supplement Table 4S, M±SD, read-out: LC50 values of compounds for cell line, HL-60/adr), 8.4 µM; in [14] (HCT-116, 24 h, read-out: LC50 Values of Compounds for Cell Line, HCT-116), 1900 ± 240 nM; in [14] (HCT-116, read-out: LC50 values of compounds for cell line, HCT-116), 3100 nM; in series [15] (24 h, read-out: LC50 Values of Compounds for Cell Line, Jurkat) it was 9.47 ± 1.1 µM; in series [15] (read-out: LC50 values of compounds for cell line, Jurkat), 5.63 µM. Also, the CC50 in series [16] was in the range of 1.9 to 13.6 µM. For the same compound, the CC50 at 24 h in series [17] (LC50 Values of Compounds for Cell Line, HEK293, Table 2, trypan blue, 24 h, M ± SD) amounted to 13.6 ± 0.8 µM; in series [17] (LC50 values of compounds for cell line, HEK293, supplement Table 4S, M±SD), 8.41 µM.

For the compound `C/C=C1\NC(=O)[C@H]2CSSCC/C=C/[C@H](CC(=O)N[C@H](C(C)C)C(=O)N2)OC(=O)[C@H](C(C)C)NC1=O` [Romidepsin], the IC50 in [3] was 36 nM.

Take `CN1C(=O)C2Cc3c(c4ccccc4n3Cc3ccc(C(=O)NO)cc3)C(C2)C1=O` (stereo not shown) [Marbostat-100]: the Ki in [19] was 0.7 nM.

With `O=C(CCn1cc(CCn2nnc3c(Br)c(Br)c(Br)c(Br)c32)nn1)NO` [Compound 1], the values for the IC50 in [4] and in [6] were 5 µM and 5.4 µM, respectively.
